The conditions of series [1]: human.
For series [2] the following is noted: human, serum, 4383 h.
Series [3] can be described thus: Times to onset, minimal and maximal, observed in the indexed observations. [column 'DELAI' in source]. The settings on record: human.
The conditions of series [4]: human. This is another data set of the same source.
For series [5] the following is noted: human. The source holds these as a separate data set.
For series [6] the following is noted: human. The source holds these as a separate data set.
For series [7] the following is noted: human. This is another data set of the same source.
The conditions of series [8]: human, serum.
The conditions of series [9]: human. This is another data set of the same source.
The conditions of series [10]: human. This is another data set of the same source.
A short description of series [11]: Highest frequency of moderate liver toxicity observed during clinical trials, expressed as a percentage. [column '% BIOL' in source]. Conditions: human.
The conditions of series [12]: human. The source holds these as a separate data set.
The conditions of series [13]: human. The source holds these as a separate data set.
For series [14] the following is noted: human, serum. The source holds these as a separate data set.
Series [15] in a line: Highest frequency of acute liver toxicity observed during clinical trials, expressed as a percentage. [column '% AIGUE' in source]. The settings on record: human.
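For Hepatotoxicity (association with vascular disease) in this document: count of indexed literature references reporting vascular liver injury in humans, e.g. peliosis hepatitis, hepatic veno-occlusive disease or Budd-Chiari syndrome.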
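For Hepatotoxicity (benign tumour) in this document: value is a count of indexed literature references citing a benign tumour confirmed by histopathology.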
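For Hepatotoxicity (choleostasis) in this document: human cholestatic liver injury, shown by histopathology or by peak ALT or AST elevation over alkaline phosphatase ratio below 2, value counts indexed literature reports.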
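For Hepatotoxicity (chronic liver disease) in this document: chronic liver injury confirmed by histopathology or persistently raised serum aminotransferase activity beyond 6 months, value given as the count of indexed literature references.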
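For Hepatotoxicity (cirrhosis) in this document: value is a count of indexed literature references reporting cirrhosis confirmed by histopathology.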
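For Hepatotoxicity (cytolytic) in this document: human cytolytic liver injury, shown by histopathology or by a ratio above 5 of peak ALT or AST elevation to alkaline phosphatase elevation, value counts indexed references.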
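For Hepatotoxicity (granulomatous hepatitis) in this document: value is a count of indexed literature references reporting granulomatous liver disease confirmed by histopathology.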
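For Hepatotoxicity (malignant tumour) in this document: malignant tumour confirmed by histopathology, value gives the count of indexed literature references reporting it.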
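For Hepatotoxicity (severe hepatitis) in this document: human clinical data: severe hepatitis, meaning potentially life-threatening liver failure or clinically observed cases, the value counts how many indexed literature references report it.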
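For Hepatotoxicity (steatosis) in this document: steatosis confirmed by histopathology, value is the count of indexed references.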

Turning to `CN(C)C(=O)OC1N=C(c2ccccc2)c2cc(Cl)ccc2N(C)C1=O` (stereo not given) [CAMAZEPAM], the “Hepatotoxicity (granulomatous hepatitis)” value in [1] is 0. The “Hepatotoxicity (chronic liver disease)” value in [2] stood at 0. Also, the “Hepatotoxicity (time to onset)” value in series [3] was determined as 3 months. Also, the “Hepatotoxicity (cytolytic)” value in series [4] was found to be 1. Further, the “Hepatotoxicity (choleostasis)” value in [5] is 0. Further, the “Hepatotoxicity (severe hepatitis)” value in series [6] came to 0. In addition, the “Hepatotoxicity (cirrhosis)” value in [7] amounted to 0. Further, the “Hepatotoxicity (acute)” value in series [8] is recorded as 1; in series [15], 0%. Moreover, the “Hepatotoxicity (association with vascular disease)” value in [9] was found to be 0. In series [10], the “Hepatotoxicity (steatosis)” value is recorded as 0. In addition, the “Hepatotoxicity (moderate)” value worked out at 0% in [11] and 0 in series [14]. In series [12], the “Hepatotoxicity (malignant tumour)” value came to 0. In series [13], the “Hepatotoxicity (benign tumour)” value is recorded as 0.
Turning to `CCN(CCO)CCCC(C)Nc1ccnc2cc(Cl)ccc12` (stereo not given) [HYDROXYCHLOROQUINE], in series [1], the “Hepatotoxicity (granulomatous hepatitis)” value is 0. The “Hepatotoxicity (chronic liver disease)” value in series [2] came to 0. For the same compound, the “Hepatotoxicity (time to onset)” value in series [3] came out at 1 year. Also, the “Hepatotoxicity (cytolytic)” value in [4] came out at 1. Further, in series [5], the “Hepatotoxicity (choleostasis)” value is listed as 1. Further, the “Hepatotoxicity (severe hepatitis)” value in series [6] was 1. Also, the “Hepatotoxicity (cirrhosis)” value in [7] worked out at 0. Also, the “Hepatotoxicity (acute)” value in series [8] came out at 2; in [15] it was 5.3%. The “Hepatotoxicity (association with vascular disease)” value in [9] is 0. Moreover, the “Hepatotoxicity (steatosis)” value in series [10] was 0. The “Hepatotoxicity (moderate)” value is given as 11.1% in series [11] and 1 in series [14]. The “Hepatotoxicity (malignant tumour)” value in [12] is 0. In series [13], the “Hepatotoxicity (benign tumour)” value was 0.
In the case of `C1CC1` [CYCLOPROPANE], the “Hepatotoxicity (granulomatous hepatitis)” value in [1] was 0. For the same compound, the “Hepatotoxicity (chronic liver disease)” value in [2] came out at 0. For the same compound, the “Hepatotoxicity (time to onset)” value in series [3] stood at 1 day - 2 weeks. In series [4], the “Hepatotoxicity (cytolytic)” value is 3. Moreover, the “Hepatotoxicity (choleostasis)” value in [5] was found to be 0. Also, in [6], the “Hepatotoxicity (severe hepatitis)” value turned out to be 2. For the same compound, the “Hepatotoxicity (cirrhosis)” value in series [7] is on record as 0. The “Hepatotoxicity (acute)” value was 3 in series [8] and 0% in series [15]. Also, in [9], the “Hepatotoxicity (association with vascular disease)” value was 0. In series [10], the “Hepatotoxicity (steatosis)” value came to 0. Besides, the results for the “Hepatotoxicity (moderate)” value in series [11] and in series [14] were 0% and 0, respectively. For the same compound, the “Hepatotoxicity (malignant tumour)” value in series [12] turned out to be 0. In addition, the “Hepatotoxicity (benign tumour)” value in series [13] is 0.
As for `Nc1ccn([C@@H]2O[C@H](CO)[C@@H](O)C2(F)F)c(=O)n1` [GEMCITABINE], in [1], the “Hepatotoxicity (granulomatous hepatitis)” value is 0. Further, the “Hepatotoxicity (chronic liver disease)” value in series [2] is given as 0. For the same compound, in [3], the “Hepatotoxicity (time to onset)” value was determined as 1 cure - 7 cures. Further, the “Hepatotoxicity (cytolytic)” value in series [4] turned out to be 6. In addition, the “Hepatotoxicity (choleostasis)” value in [5] is 3. In series [6], the “Hepatotoxicity (severe hepatitis)” value was determined as 2. The “Hepatotoxicity (cirrhosis)” value in series [7] is given as 0. In addition, the “Hepatotoxicity (acute)” value in series [8] worked out at 12; in series [15], 45.5%. The “Hepatotoxicity (association with vascular disease)” value in series [9] turned out to be 2. In addition, the “Hepatotoxicity (steatosis)” value in series [10] is given as 0. For the same compound, the “Hepatotoxicity (moderate)” value in series [11] stood at 90.9%; in series [14] it was 13. The “Hepatotoxicity (malignant tumour)” value in series [12] worked out at 0. For the same compound, in [13], the “Hepatotoxicity (benign tumour)” value came out at 0.
Turning to `CN1C2CCCC1CC(NC(=O)c1nn(C)c3ccccc13)C2` (stereo not given) [GRANISETRON], the “Hepatotoxicity (granulomatous hepatitis)” value in series [1] is 0. The “Hepatotoxicity (chronic liver disease)” value in [2] is on record as 0. In series [3], the “Hepatotoxicity (time to onset)” value is on record as 1 week. In series [4], the “Hepatotoxicity (cytolytic)” value stood at 0. In series [5], the “Hepatotoxicity (choleostasis)” value is listed as 0. The “Hepatotoxicity (severe hepatitis)” value in [6] is reported as 0. Further, the “Hepatotoxicity (cirrhosis)” value in series [7] turned out to be 0. Besides, the results for the “Hepatotoxicity (acute)” value in series [8] and in [15] were 0 and 0%, respectively. The “Hepatotoxicity (association with vascular disease)” value in series [9] is reported as 0. In series [10], the “Hepatotoxicity (steatosis)” value was 0. The “Hepatotoxicity (moderate)” value amounted to 7.9% in series [11] and 2 in series [14]. For the same compound, in series [12], the “Hepatotoxicity (malignant tumour)” value worked out at 0. Also, in [13], the “Hepatotoxicity (benign tumour)” value is 0.
Consider `CCCCCNCC(N)=O` [MILACEMIDE], for which the “Hepatotoxicity (granulomatous hepatitis)” value in series [1] amounted to 0. Moreover, the “Hepatotoxicity (chronic liver disease)” value in [2] was 0. Also, the “Hepatotoxicity (time to onset)” value in [3] stood at 3 weeks - 4 weeks. Moreover, the “Hepatotoxicity (cytolytic)” value in [4] was found to be 1. For the same compound, the “Hepatotoxicity (choleostasis)” value in series [5] turned out to be 1. Moreover, in [6], the “Hepatotoxicity (severe hepatitis)” value worked out at 0. Moreover, the “Hepatotoxicity (cirrhosis)” value in series [7] turned out to be 0. Moreover, the “Hepatotoxicity (acute)” value in series [8] was 1; in series [15], 0%. The “Hepatotoxicity (association with vascular disease)” value in [9] is given as 0. The “Hepatotoxicity (steatosis)” value in series [10] turned out to be 0. The “Hepatotoxicity (moderate)” value came to 70% in [11] and 3 in [14]. Also, the “Hepatotoxicity (malignant tumour)” value in series [12] is 0. Besides, the “Hepatotoxicity (benign tumour)” value in series [13] came out at 0.
Turning to `FCOC(C(F)(F)F)C(F)(F)F` [SEVOFLURANE], the “Hepatotoxicity (granulomatous hepatitis)” value in series [1] came to 0. Also, the “Hepatotoxicity (chronic liver disease)” value in series [2] came out at 0. In [3], the “Hepatotoxicity (time to onset)” value turned out to be 1 day - 11 days. For the same compound, the “Hepatotoxicity (cytolytic)” value in [4] is recorded as 6. Besides, in [5], the “Hepatotoxicity (choleostasis)” value turned out to be 0. Also, in [6], the “Hepatotoxicity (severe hepatitis)” value turned out to be 2. Besides, the “Hepatotoxicity (cirrhosis)” value in [7] is 0. Besides, the “Hepatotoxicity (acute)” value in series [8] is reported as 6; in [15], 0%. Also, the “Hepatotoxicity (association with vascular disease)” value in series [9] is 0. In addition, the “Hepatotoxicity (steatosis)” value in series [10] is 0. Further, the “Hepatotoxicity (moderate)” value in series [11] is 40%; in series [14], 4. Also, the “Hepatotoxicity (malignant tumour)” value in [12] came out at 0. For the same compound, in series [13], the “Hepatotoxicity (benign tumour)” value is listed as 0.
With `CCN(CC)CCCC(C)Nc1ccnc2cc(Cl)ccc12` (stereo not given) [CHLOROQUINE], the “Hepatotoxicity (granulomatous hepatitis)” value in [1] was found to be 1. Further, in series [2], the “Hepatotoxicity (chronic liver disease)” value was 0. Moreover, the “Hepatotoxicity (time to onset)” value in series [3] was determined as 1 day - 4 months. Also, the “Hepatotoxicity (cytolytic)” value in [4] is 4. In addition, the “Hepatotoxicity (choleostasis)” value in [5] stood at 1. Besides, the “Hepatotoxicity (severe hepatitis)” value in series [6] came out at 0. The “Hepatotoxicity (cirrhosis)” value in series [7] was determined as 0. The figures for the “Hepatotoxicity (acute)” value in series [8] and in series [15] were 8 and 0%, respectively. The “Hepatotoxicity (association with vascular disease)” value in series [9] is reported as 0. The “Hepatotoxicity (steatosis)” value in series [10] came to 0. The entries for the “Hepatotoxicity (moderate)” value in [11] and in [14] were 0% and 7, respectively. Besides, the “Hepatotoxicity (malignant tumour)” value in [12] stood at 0. For the same compound, the “Hepatotoxicity (benign tumour)” value in series [13] is 0.
`Nc1ccc(C(=O)O)cc1` [AMINOBENZOIC ACID]: the “Hepatotoxicity (granulomatous hepatitis)” value in [1] came to 0. For the same compound, the “Hepatotoxicity (chronic liver disease)” value in series [2] is listed as 0. Besides, in series [3], the “Hepatotoxicity (time to onset)” value is recorded as 4 weeks - 2 months. In addition, in series [4], the “Hepatotoxicity (cytolytic)” value amounted to 2. Besides, the “Hepatotoxicity (choleostasis)” value in series [5] is on record as 0. The “Hepatotoxicity (severe hepatitis)” value in [6] turned out to be 0. For the same compound, the “Hepatotoxicity (cirrhosis)” value in [7] is 0. In addition, the “Hepatotoxicity (acute)” value in series [8] was found to be 3; in [15], 0%. For the same compound, in [9], the “Hepatotoxicity (association with vascular disease)” value came out at 0. The “Hepatotoxicity (steatosis)” value in series [10] is 0. Further, the “Hepatotoxicity (moderate)” value in series [11] stood at 35%; in [14] it was 1. For the same compound, the “Hepatotoxicity (malignant tumour)” value in series [12] is listed as 0. Moreover, the “Hepatotoxicity (benign tumour)” value in series [13] stood at 0.
As for `CN(C)CC/C=C1/c2ccccc2Sc2ccc(Cl)cc21` [CHLORPROTHIXENE], the “Hepatotoxicity (granulomatous hepatitis)” value in [1] is given as 0. In [2], the “Hepatotoxicity (chronic liver disease)” value is recorded as 0. Moreover, the “Hepatotoxicity (time to onset)” value in series [3] came out at 1 week. Moreover, the “Hepatotoxicity (cytolytic)” value in series [4] turned out to be 0. In [5], the “Hepatotoxicity (choleostasis)” value is 1. In series [6], the “Hepatotoxicity (severe hepatitis)” value is 0. The “Hepatotoxicity (cirrhosis)” value in [7] was determined as 0. For the same compound, the “Hepatotoxicity (acute)” value stood at 1 in [8] and 0% in series [15]. Moreover, the “Hepatotoxicity (association with vascular disease)” value in series [9] turned out to be 0. Also, the “Hepatotoxicity (steatosis)” value in [10] was 0. Moreover, the “Hepatotoxicity (moderate)” value in series [11] was determined as 0%; in series [14], 0. Further, in [12], the “Hepatotoxicity (malignant tumour)” value is 0. Further, the “Hepatotoxicity (benign tumour)” value in [13] worked out at 0.
Consider `COc1ccc2c(c1)N(C[C@H](C)CN(C)C)c1ccccc1S2` [LEVOMEPROMAZINE], for which the “Hepatotoxicity (granulomatous hepatitis)” value in series [1] amounted to 0. Moreover, in series [2], the “Hepatotoxicity (chronic liver disease)” value is given as 0. Moreover, the “Hepatotoxicity (time to onset)” value in series [3] came out at 1.2 months - 2 months. Besides, the “Hepatotoxicity (cytolytic)” value in series [4] was determined as 1. Also, the “Hepatotoxicity (choleostasis)” value in series [5] is 3. The “Hepatotoxicity (severe hepatitis)” value in [6] is on record as 0. Moreover, the “Hepatotoxicity (cirrhosis)” value in series [7] was 0. Moreover, the “Hepatotoxicity (acute)” value in series [8] is listed as 4; in series [15], 2.7%. For the same compound, in series [9], the “Hepatotoxicity (association with vascular disease)” value is 0. For the same compound, in [10], the “Hepatotoxicity (steatosis)” value was 0. The results for the “Hepatotoxicity (moderate)” value in [11] and in [14] were 4.5% and 2, respectively. Also, the “Hepatotoxicity (malignant tumour)” value in series [12] turned out to be 0. In addition, the “Hepatotoxicity (benign tumour)” value in series [13] was found to be 0.
